The values below are quoted from earlier work in patent US20230226068A1, “METHOD, SYSTEM, FORMULATION AND KIT FOR THE TREATMENT OF ONYCHOMYCOSIS” (priority 2021, published 2023).

Molecules are shown by their SMILES. Read-outs that look alike come from different tables or passages of the source.

The conditions of this data set: for side effects: po.

For the molecule `CCC(C)(C)c1ccc(CC(C)CN2C[C@@H](C)O[C@@H](C)C2)cc1` (stereo partly shown) [Amorolfine], the safety profile result (in vivo) is “local skin irritations”.
For the molecule `Cc1cc(C2CCCCC2)n(O)c(=O)c1` [Ciclopirox], the safety profile entry (in vivo) is listed as “local skin irritations”.
In the case of `C=C1CCN([C@H](C)[C@](O)(Cn2cncn2)c2ccc(F)cc2F)CC1` [Efinaconazole], the safety profile entry (in vivo) is listed as “local skin irritations”.
Take `OC(Cn1cncn1)(Cn1cncn1)c1ccc(F)cc1F` [Fluconazole]: where the note is “in vivo”, the side effects entry is reported as “liver enzyme abnormalities, headaches, as well as gastrointestinal problems or rashes”.
With `CCC(C)n1ncn(-c2ccc(N3CCN(c4ccc(OCC5COC(Cn6cncn6)(c6ccc(Cl)cc6Cl)O5)cc4)CC3)cc2)c1=O` (stereo not shown) [Itraconazole], for the setting “in vivo”, the side effects entry is reported as “liver enzyme abnormalities, headaches, as well as gastrointestinal problems or rashes”.
Consider `OB1OCc2cc(F)ccc21` [Tavaborole], for which the safety profile result (topical treatment) is given as “local skin irritations”.
Regarding `CN(C/C=C/C#CC(C)(C)C)Cc1cccc2ccccc12` [Terbinafine], the side effects entry (in vivo) was “liver enzyme abnormalities, headaches, as well as gastrointestinal problems or rashes”.
